Test [1] concerns retinal neurons (RGCs) and glia (Müller cells). Kind of test: Hypotonic stimuli: cell swelling (change in cell area) and [Ca++]i. The format is cell-based. To be noted: osmolarity lowered from 300 mOsm to 190 mOsm. The source says: FIG. 18A illustrates the effect of hypotonic stimuli on cell swelling as measured by change in cell area. Hypotonic stimuli were generated by replacing extracellular sodium levels to lower osmolarity from 300 mOsm to 190 mOsm.

In another test the test system is MB model of glaucoma. Kind of test: IOP time course after a single eye drop in the MB model of glaucoma. Format: in vivo, mouse. The protocol:
Specifically, microbeads (MBs) were injected into the anterior chamber of a mouse eye as described in Example 2 with PBS-injected eyes used as controls. Compound 1 (10 mg/kg body weight) (or PBS vehicle) was injected intraperitoneally (IP). […] IOP was measured in mice between 10:00 AM and 1:00 PM with the TonoLab rebound tonometer (Colonial Medical Supply, Franconia, NH/Tyolat, Helsinki, Finland). Mice were sedated with IP injection of Avertin with final amount calculated by weight (e.g., 0.5 ml for 21-24 g animals). Animals were placed on a jack stand platform and the tonolab was clamped on a ring stand and centered onto the mid-cornea. During measurements animal were neither restrained nor touched. Each eye was measured twenty consecutive times, the highest and lowest values were discarded and the values were averaged.
FIG. 9 illustrates the short-term effects of a single dose of Compound 1 (eye drop) in the MB model of glaucoma. IOP was measured as described in Example 3 at the indicated time points after receiving a drop of Compound 1. Compound 1 reduced IOP beginning at 1 hour after dosing and continued through 6 hours after dosing.
FIG. 10 illustrates a time course of Compounds 1, 2, 5 and Compound 2-HCl as well as a positive control compound, timolol, with regard to inhibition of IOP. The experiment was conducted as described in Example 9. Each of the TRPV4 antagonists reduced IOP with a similar time course. Specifically, Compounds 1, 2, 5 and Compound 2-HCl reduced IOP for at least 6 hours after dosing.
FIG. 11 illustrates a time course of Compound 2-HCl activity. The experiment was conducted as described in Example 9. […] 2
FIG. 12 illustrates a comparison of the time course of Compound 2-HCl and Compound 5. The experiment was conducted as described in Example 9.

The target of test [2] is T1, TRPV4 (Homo sapiens, UniProt Q9HBA0).
T1 construct: endogenous in cells; host or cells: primary human trabecular meshwork cells from trabeculectomy tissue
Kind of test: Calcium imaging (fura-2) in human trabecular meshwork cells. The settings on record: bath application 100 nM, human TM cells, room temperature. Format: cell-based. The method, then:
Pieces of tissue were isolated from a trabeculectomy. Trabecular meshwork cells (TM) were kept in cold L15 medium and then loaded with Fura-2 (10 μm) for 1 hour. Fibroblast-shaped cells were imaged from a TM chunk (˜500 μm×500 μm) with a 40× water immersion objective. The sampling rate was at 6 second intervals. Krebs Ringer Bicarbonate Recording buffer (7.4, 284 mOsm) was prepared as reported by Anthony et al., 1998, IOVS; Prostaglandin F2α receptors in the human trabecular meshwork.
Calcium imaging was performed on TM cells isolated from human patients. In brief, dissociated human TM cells embedded within the tissue were dissociated and plated on concanavalin A-coated (0.2 mg/ml; Sigma) coverslips, loaded with fura-2 AM ([…]; Invitrogen Life Technologies) for 15 min-1 hour and washed for 10 min in dye-free L-15 medium. […] Fluorescence emission was high-pass filtered at 510 nm and captured with cooled digital CCD cameras (HQ2, Photometrics). […] Fluorescence imaging was performed on regions of interest (ROIs) encompassing the TM cell somata, typically at 3×3 binning. Background fluorescence was measured in similarly sized ROIs in neighboring areas devoid of cells. After sequential image acquisition (0.167-0.5 Hz) of cell fluorescence at 340/380 nm, the background was subtracted. […]

Test [3] concerns retinal ganglion cells. Kind of test: In vivo intraocular injection of TRPV4 agonist GSK, NeuN+ RGC count. To be noted: 100-300 nM injected intraocularly, retinas isolated after 48 hours. The protocol: In this experiment, GSK (100-300 nM) was injected intraocularly with a Hamilton syringe. Retinas were isolated after 48 hours, fixed and labeled with the RGC marker antibody NeuN. NeuN-immunopositive somata in the ganglion cell layer, shown in the panel on the right, were counted. The bar graph represents quantification of NeuN^+ cells in the indicated experimental groups.

Test [4] has as its system retinal ganglion cells. Kind of test: TUNEL assay of apoptotic cell death in retina. The format is cell-based. The protocol: Terminal deoxynucleotidyl transferase-mediated dUTP-biotin nick end labeling (TUNEL) is a common method for detecting fragmentation that results from apoptotic signaling cascades. Retinas were embedded, cryosectioned, and processed for the TUNEL assay following the protocol by Gavrieli et al. (1992). After 30 min. rehydration in 70% ethanol, 2×5 min. rinses in PBS and 1% Triton-X in 1% citrate buffer (pH 7.3), the slides were subjected to a final rinse in PBS. Slides were then incubated for 30 min. in the reaction buffer (30 mM Trizma-HCl, 140 mM Na^+ cacodylate, 1.0 mM CaCl2, 0.2% Triton X-100, pH 7.2). Positive controls were treated with DNAse I (Roche Diagnostics; Branford, Conn.; 10 U/ml) in the reaction buffer. Next, slides were treated for 1 hour with 0.03 units/pi terminal transferase and 4 μM biotin-16-dUTP (Roche Diagnostics). The reaction was terminated in 30 mM Na+ citrate, 300 mM NaCl and 0.2% Triton X-100 in PBS (5 min.) and rinsed in PBS (2×5 min), exposed to 1% bovine serum albumin in PBS for 20 min and rinsed. Apoptotic cells were visualized with a confocal microscope (Zeiss LSM510) and categorized by size. […] This was blocked by RuR and by the TRPV4 antagonist Compound 1.

The target in test [5] is T2, TRPV4 (Mus musculus, UniProt Q9EPK8). Kind of test: TRPV4 agonist GSK-evoked [Ca++]i in retinal Müller glial cells. The format is cell-based. Details: endogenous in cells; host or cells: retinal Müller glial cells.
Test [6] concerns the target T2, TRPV4. Kind of test: AGB cation influx into retinal cells (anti-AGB antibody). The format is cell-based. Also noted: these two cell types express TRPV4 channels in the mouse retina; from tissue; host or cells: mouse retina. To be noted: mouse retina. The protocol: FIG. 16 illustrates the effect of the TRPV4 agonist GSK on cation influx into mouse retinal cells of the mouse retina. The influx was determined using the anti-AGB antibody, as described by Marc RE (J Comp Neurol 407(1): 47-64, 1999). AGB is a membrane permeant cation that can flow through most known cation channels. Using an anti-AGB antibody, it can be determined where the cation flux occurs and, therefore, which cells are activated.

The test system of another test is Müller cells. Kind of test: Arachidonic acid-induced [Ca2+]i in Müller cells. The settings on record: 10 μM, Müller cells. Format: cell-based. The protocol:
This response is blocked by Compound 1 (1 μM).

T2 sequence (Q9EPK8 whole entry): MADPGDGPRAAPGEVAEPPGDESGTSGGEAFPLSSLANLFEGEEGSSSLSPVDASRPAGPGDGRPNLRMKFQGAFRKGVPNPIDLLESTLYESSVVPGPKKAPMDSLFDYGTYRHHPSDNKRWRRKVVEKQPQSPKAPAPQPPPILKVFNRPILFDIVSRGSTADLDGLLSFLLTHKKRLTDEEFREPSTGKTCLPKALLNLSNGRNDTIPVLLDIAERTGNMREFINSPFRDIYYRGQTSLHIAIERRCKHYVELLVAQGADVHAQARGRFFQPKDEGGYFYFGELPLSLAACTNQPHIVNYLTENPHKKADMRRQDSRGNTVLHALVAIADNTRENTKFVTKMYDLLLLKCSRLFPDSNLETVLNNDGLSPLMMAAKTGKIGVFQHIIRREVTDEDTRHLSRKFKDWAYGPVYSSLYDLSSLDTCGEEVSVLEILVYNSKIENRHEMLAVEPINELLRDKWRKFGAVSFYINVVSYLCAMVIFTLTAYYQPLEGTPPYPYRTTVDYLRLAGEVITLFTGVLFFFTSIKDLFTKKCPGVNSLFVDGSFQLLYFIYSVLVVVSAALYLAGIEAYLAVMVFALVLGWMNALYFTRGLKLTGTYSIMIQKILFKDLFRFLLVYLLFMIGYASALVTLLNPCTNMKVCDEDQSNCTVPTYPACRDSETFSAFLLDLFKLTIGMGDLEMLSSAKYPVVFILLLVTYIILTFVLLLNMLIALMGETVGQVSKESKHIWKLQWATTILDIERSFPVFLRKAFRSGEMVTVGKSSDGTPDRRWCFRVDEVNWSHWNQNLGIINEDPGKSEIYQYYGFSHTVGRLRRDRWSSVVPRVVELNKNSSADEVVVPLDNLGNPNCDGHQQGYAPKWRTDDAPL
T1 sequence (Q9HBA0 whole entry): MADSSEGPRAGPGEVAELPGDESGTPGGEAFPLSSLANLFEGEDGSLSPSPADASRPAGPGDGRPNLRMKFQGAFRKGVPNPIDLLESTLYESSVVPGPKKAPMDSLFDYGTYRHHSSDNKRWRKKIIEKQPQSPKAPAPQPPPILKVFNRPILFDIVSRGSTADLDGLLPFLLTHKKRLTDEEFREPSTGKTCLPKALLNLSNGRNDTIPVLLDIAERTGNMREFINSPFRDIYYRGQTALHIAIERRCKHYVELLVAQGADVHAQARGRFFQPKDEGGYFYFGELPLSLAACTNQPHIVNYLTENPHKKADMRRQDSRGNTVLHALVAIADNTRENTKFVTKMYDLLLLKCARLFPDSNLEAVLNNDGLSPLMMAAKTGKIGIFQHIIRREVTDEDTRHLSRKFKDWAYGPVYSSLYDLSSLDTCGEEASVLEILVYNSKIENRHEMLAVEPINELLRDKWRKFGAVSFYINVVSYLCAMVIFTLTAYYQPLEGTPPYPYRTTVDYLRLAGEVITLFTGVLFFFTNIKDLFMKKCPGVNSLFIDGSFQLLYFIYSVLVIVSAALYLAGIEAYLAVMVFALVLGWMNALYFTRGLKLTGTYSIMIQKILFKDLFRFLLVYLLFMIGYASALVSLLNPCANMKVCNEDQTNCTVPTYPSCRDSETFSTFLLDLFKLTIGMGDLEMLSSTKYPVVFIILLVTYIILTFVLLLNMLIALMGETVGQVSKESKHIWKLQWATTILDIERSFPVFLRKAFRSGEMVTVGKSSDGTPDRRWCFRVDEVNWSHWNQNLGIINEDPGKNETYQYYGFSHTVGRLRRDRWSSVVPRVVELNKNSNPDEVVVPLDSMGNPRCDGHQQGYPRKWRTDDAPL

Take `CC(=O)OCOC(=O)CN(CC(=O)OCOC(C)=O)c1ccccc1OCCOc1ccccc1N(CC(=O)OCOC(C)=O)CC(=O)OCOC(C)=O` [BAPTA-AM, reference compound]: the “cell swelling (change in cell area)” value in test [1] is “significantly reduced”.
In the case of `CC(C)(C)NC[C@H](O)COc1nsnc1N1CCOCC1` [timolol, reference compound], in the test on MB model of glaucoma (positive control, eye drop), the “inhibition of IOP, curve relative to the exemplary TRPV4 antagonists” value is “left-shifted dose-response curve”.
`CC(C)C[C@H](NC(=O)c1cc2ccccc2s1)C(=O)N1CCN(C(=O)[C@H](CO)NS(=O)(=O)c2ccc(Cl)cc2Cl)CC1` [GSK1016790A, reference compound]: at TRPV4 [2], the “340/380 fluorescence ratio (intracellular calcium concentration [Ca++]i)” value was “increased 340/380 fluorescence ratio”. In addition, the “number of retinal ganglion cells (NeuN+ somata), agonist effect” value with retinal ganglion cells [3] is “substantially reduces the number of retinal ganglion cells”. Moreover, in the test on retinal ganglion cells [4] (100 nM), the “death of retinal ganglion cells (increased TUNEL staining), agonist effect” value is on record as “induced death of retinal ganglion cells”. Besides, the “intracellular calcium concentration [Ca++]i, agonist effect” value at TRPV4 [5] is reported as “evokes sustained increases in intracellular calcium concentration”. For the same compound, on TRPV4 [6], the “number of AGB+ cells (cation influx), agonist effect” value is “increased the number of AGB^+ retinal ganglion cells and Müller glial cells”.
For `N.N.N.N.N.N.N.N.N.N.N.N.N.N.[Cl-].[Cl-].[Cl-].[Cl-].[Cl-].[Cl-].[O-2].[O-2].[Ru+3].[Ru+3].[Ru+4]` [Ruthenium Red], the “apoptotic cell death (TUNEL) induced by hypotonic swelling” value in the test on retinal ganglion cells [4] (190 mOsm saline, Compound 1 1 uM, RuR 10 μM) is “block apoptotic cell death”. Also, the “apoptotic cell death (TUNEL) induced by the TRPV4 agonist GSK” value in the test with retinal ganglion cells [4] (GSK 100 nM, Compound 1 1 uM, RuR 10 μM) is recorded as “block apoptotic cell death”.
In the case of `CCCCC/C=C\C/C=C\C/C=C\C/C=C\CCCC(=O)O` [arachidonic acid, reference compound], the “[Ca2+]i response” value in the test with Müller cells is “increase in [Ca2+]i”.
With `Cc1c(C(=O)Nc2cccc(C(=O)OC(C)C)c2)cc(-c2ccccc2)n1CCCN1CCOCC1.Cl` [Compound 2-HCl, iso-propyl 3-(2-methyl-1-(3-morpholinopropyl)-5-phenyl-1H-pyrrole-3-carboxamido)benzoate hydrochloride], the “time of maximal inhibition of IOP after dosing” value with MB model of glaucoma (single dose eye drop) worked out at 6 h. Moreover, in the test on MB model of glaucoma (single dose eye drop, post-dosing), the “time until IOP reached pre-dose levels” value stood at 33 h.

Source of the values: US20130303539A1, “COMPOUNDS WITH TRPV4 ACTIVITY, COMPOSITIONS AND ASSOCIATED METHODS THEREOF” (priority 2012, published 2013).
